Series [1] in a line: pKa values from the literature.
For series [2] the following is noted: cited from earlier work.

Where two headings read alike, the source gives them in different places.

For `N=C(N)NCCC[C@H](N)C(=O)O` [arginine], the “pK, mean value” in series [1] (mean of pK1 and pK2) was “about 5.6”.

`CC(C(=O)O)c1cccc(C(=O)c2ccccc2)c1` (stereo not shown) [ketoprofen, 2-(3-benzoylphenyl)propionic acid]: the pKa in series [2] (acetonitrile/water (3/1)) was 5.02; in series [2] (methanol/water (3/1)), 5.94; in series [1] (acetonitrile/water (3/1) and methanol/water (3/1)) it was around 5.5.
